# Measured values taken from ChEMBL document CHEMBL5338706, “Discovery of a potent and selective proteolysis targeting chimera (PROTAC) degrader of NSD3 histone methyltransferase” (Eur J Med Chem, 2022).
# pEC50, pIC50: −log10 of the molar value. The source made the active and inactive calls. The rule behind the calls is not given here.
# Legend:
# [1] = target: T1, Histone-lysine N-methyltransferase NSD3 (Homo sapiens) (UniProt Q9BZ95); experiment: Induction of NSD3 degradation in human NCI-H1703 cells at 5 uM incubated for 72 hrs by Western blot analysis; format: cell-based
# T1 sequence (whole entry): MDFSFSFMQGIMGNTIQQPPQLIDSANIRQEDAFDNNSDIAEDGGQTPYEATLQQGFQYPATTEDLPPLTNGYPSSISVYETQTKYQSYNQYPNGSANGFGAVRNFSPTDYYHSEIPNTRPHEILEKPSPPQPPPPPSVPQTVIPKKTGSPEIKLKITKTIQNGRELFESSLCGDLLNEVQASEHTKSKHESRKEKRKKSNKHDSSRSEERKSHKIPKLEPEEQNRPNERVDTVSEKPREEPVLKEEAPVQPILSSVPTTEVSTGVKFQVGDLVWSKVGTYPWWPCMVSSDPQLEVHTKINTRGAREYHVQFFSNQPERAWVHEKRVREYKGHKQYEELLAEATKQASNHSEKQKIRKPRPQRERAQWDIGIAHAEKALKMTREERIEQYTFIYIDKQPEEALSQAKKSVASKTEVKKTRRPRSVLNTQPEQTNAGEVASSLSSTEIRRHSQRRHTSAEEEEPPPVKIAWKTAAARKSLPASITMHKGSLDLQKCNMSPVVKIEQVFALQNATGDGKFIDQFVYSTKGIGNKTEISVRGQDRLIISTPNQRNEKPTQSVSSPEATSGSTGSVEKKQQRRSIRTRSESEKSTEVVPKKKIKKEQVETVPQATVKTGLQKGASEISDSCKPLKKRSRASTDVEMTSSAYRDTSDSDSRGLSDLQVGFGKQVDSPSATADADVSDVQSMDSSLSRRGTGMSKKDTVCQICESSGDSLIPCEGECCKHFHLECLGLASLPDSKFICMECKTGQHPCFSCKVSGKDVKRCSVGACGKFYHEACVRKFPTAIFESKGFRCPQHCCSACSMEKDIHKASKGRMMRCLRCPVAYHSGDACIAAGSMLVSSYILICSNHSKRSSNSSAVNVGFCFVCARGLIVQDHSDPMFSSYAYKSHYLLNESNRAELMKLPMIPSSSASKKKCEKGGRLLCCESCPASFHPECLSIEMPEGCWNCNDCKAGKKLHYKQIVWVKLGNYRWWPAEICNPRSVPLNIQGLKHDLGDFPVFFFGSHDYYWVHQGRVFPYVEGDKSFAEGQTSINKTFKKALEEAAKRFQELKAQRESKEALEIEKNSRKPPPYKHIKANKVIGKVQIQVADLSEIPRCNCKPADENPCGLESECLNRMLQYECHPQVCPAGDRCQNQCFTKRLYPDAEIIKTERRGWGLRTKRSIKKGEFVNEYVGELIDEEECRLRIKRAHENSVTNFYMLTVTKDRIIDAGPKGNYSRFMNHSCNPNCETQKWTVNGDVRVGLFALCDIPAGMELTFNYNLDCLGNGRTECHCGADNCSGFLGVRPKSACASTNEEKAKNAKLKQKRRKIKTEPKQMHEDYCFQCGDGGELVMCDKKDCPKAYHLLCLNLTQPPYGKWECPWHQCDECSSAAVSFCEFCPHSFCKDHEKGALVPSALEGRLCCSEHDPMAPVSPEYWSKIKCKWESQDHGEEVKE
# [2] = test system: NCI-H1703; experiment: Downregulation of CDC25A in human NCI-H1703 cells measured after 72 hrs by RT-qPCR method; format: functional, cell-based; conditions: dose 3-7.5 µM
# [3] = Downregulation of Cyclin D1 level in human NCI-H1703 cells at 3 uM by measuring fold change by Western blot analysis relative to control; format: functional
# [4] = target: T1, Histone-lysine N-methyltransferase NSD3 (Homo sapiens); experiment: Induction of NSD3 degradation in human A549 cells assessed as reduction in H3K36me3 methylation incubated for 72 hrs by Western blot analysis; format: cell-based; conditions: dose 5-10 µM
# [5] = target: T2, Histone-lysine N-methyltransferase NSD3 (Homo sapiens, UniProt Q9BZ95); experiment: Induction of NSD3 degradation in human A549 cells measured after 72 hrs by Western blot analysis; format: cell-based
# T2 sequence (Q9BZ95 whole entry): T1 sequence (whole entry)
# [6] = Downregulation of c-Myc level in human NCI-H1703 cells at […] by measuring fold change by Western blot analysis relative to control; format: functional; conditions: dose 7.5 µM
# [7] = test system: NCI-H1703; experiment: Induction of apoptosis in human NCI-H1703 cells assessed as decrease in MCL-1 protein expression at 10 uM by measuring fold change by Western blot analysis relative to control; format: functional
# [8] = Downregulation of CDC25A level in human NCI-H520 cells at 5 uM by measuring fold change by Western blot analysis relative to control; format: functional
# [9] = Downregulation of CDC25A level in human NCI-H1703 cells at 3 uM by measuring fold change by Western blot analysis relative to control; format: functional
# [10] = target: Histone-lysine N-methyltransferase, H3 lysine-36 specific (Homo sapiens) (UniProt Q96L73); experiment: Induction of NSD1 degradation in human A549 cells at 5 to 10 uM incubated for 72 hrs by Western blot analysis; format: cell-based; conditions: dose 5-10 µM
# [11] = test system: NCI-H1703; experiment: Downregulation of CDC25A level in human NCI-H1703 cells at 3 to […] by Western blot analysis; format: functional, cell-based; conditions: dose 3-7.5 µM
# [12] = Inhibition of clone formation in human NCI-H1703 cells at 3 uM incubated for 10 days with media replenishment for every 5 days by crystal violet staining based analysis relative to control; format: functional; conditions: NCI-H1703, 240 h, time 10 day
# [13] = test system: NCI-H520; experiment: Induction of apoptosis in human NCI-H520 cells assessed as decrease in Bcl-XL protein expression at 10 uM by measuring fold change by Western blot analysis relative to control; format: functional
# [14] = test system: NCI-H520; experiment: Induction of apoptosis in human NCI-H520 cells assessed as decrease in NSD3 protein expression at […] by measuring fold change by Western blot analysis relative to control; format: functional; conditions: dose 7.5 µM
# [15] = target: T1, Histone-lysine N-methyltransferase NSD3 (Homo sapiens); experiment: Induction of NSD3 degradation in human NCI-H1703 cells assessed as reduction in H3K36me3 methylation incubated for 72 hrs by Western blot analysis; format: cell-based; conditions: dose 3-7.5 µM
# [16] = test system: NCI-H1703; experiment: Induction of apoptosis in human NCI-H1703 cells assessed as viable cells at 10 uM measured after 72 hrs by PI/Annexin-V staining based flow cytometry analysis (reference value: 92.7% ); format: functional; conditions: read-out: Activity
# [17] = test system: NCI-H1703; experiment: Antiproliferative activity against human NCI-H1703 cells incubated for 6 days by CCK-8 method; format: functional, cell-based; conditions: NCI-H1703, 144 h
# [18] = target: T1, Histone-lysine N-methyltransferase NSD3 (Homo sapiens); experiment: Induction of NSD3 degradation in human NCI-H1703 cells at 5 uM measured after 48 hrs by Western blot analysis relative to control; format: cell-based
# [19] = test system: NCI-H520; experiment: Induction of apoptosis in human NCI-H520 cells assessed as decrease in NSD3 protein expression at 10 uM by measuring fold change by Western blot analysis relative to control; format: functional
# [20] = Downregulation of Cyclin D1 level in human NCI-H520 cells at […] by measuring fold change by Western blot analysis relative to control; format: functional; conditions: dose 7.5 µM
# [21] = Downregulation of NSD3 level in human NCI-H520 cells at […] by measuring fold change by Western blot analysis relative to control; format: functional; conditions: dose 7.5 µM
# Sequence of Histone-lysine N-methyltransferase, H3 lysine-36 specific (Homo sapiens) (Q96L73 whole entry): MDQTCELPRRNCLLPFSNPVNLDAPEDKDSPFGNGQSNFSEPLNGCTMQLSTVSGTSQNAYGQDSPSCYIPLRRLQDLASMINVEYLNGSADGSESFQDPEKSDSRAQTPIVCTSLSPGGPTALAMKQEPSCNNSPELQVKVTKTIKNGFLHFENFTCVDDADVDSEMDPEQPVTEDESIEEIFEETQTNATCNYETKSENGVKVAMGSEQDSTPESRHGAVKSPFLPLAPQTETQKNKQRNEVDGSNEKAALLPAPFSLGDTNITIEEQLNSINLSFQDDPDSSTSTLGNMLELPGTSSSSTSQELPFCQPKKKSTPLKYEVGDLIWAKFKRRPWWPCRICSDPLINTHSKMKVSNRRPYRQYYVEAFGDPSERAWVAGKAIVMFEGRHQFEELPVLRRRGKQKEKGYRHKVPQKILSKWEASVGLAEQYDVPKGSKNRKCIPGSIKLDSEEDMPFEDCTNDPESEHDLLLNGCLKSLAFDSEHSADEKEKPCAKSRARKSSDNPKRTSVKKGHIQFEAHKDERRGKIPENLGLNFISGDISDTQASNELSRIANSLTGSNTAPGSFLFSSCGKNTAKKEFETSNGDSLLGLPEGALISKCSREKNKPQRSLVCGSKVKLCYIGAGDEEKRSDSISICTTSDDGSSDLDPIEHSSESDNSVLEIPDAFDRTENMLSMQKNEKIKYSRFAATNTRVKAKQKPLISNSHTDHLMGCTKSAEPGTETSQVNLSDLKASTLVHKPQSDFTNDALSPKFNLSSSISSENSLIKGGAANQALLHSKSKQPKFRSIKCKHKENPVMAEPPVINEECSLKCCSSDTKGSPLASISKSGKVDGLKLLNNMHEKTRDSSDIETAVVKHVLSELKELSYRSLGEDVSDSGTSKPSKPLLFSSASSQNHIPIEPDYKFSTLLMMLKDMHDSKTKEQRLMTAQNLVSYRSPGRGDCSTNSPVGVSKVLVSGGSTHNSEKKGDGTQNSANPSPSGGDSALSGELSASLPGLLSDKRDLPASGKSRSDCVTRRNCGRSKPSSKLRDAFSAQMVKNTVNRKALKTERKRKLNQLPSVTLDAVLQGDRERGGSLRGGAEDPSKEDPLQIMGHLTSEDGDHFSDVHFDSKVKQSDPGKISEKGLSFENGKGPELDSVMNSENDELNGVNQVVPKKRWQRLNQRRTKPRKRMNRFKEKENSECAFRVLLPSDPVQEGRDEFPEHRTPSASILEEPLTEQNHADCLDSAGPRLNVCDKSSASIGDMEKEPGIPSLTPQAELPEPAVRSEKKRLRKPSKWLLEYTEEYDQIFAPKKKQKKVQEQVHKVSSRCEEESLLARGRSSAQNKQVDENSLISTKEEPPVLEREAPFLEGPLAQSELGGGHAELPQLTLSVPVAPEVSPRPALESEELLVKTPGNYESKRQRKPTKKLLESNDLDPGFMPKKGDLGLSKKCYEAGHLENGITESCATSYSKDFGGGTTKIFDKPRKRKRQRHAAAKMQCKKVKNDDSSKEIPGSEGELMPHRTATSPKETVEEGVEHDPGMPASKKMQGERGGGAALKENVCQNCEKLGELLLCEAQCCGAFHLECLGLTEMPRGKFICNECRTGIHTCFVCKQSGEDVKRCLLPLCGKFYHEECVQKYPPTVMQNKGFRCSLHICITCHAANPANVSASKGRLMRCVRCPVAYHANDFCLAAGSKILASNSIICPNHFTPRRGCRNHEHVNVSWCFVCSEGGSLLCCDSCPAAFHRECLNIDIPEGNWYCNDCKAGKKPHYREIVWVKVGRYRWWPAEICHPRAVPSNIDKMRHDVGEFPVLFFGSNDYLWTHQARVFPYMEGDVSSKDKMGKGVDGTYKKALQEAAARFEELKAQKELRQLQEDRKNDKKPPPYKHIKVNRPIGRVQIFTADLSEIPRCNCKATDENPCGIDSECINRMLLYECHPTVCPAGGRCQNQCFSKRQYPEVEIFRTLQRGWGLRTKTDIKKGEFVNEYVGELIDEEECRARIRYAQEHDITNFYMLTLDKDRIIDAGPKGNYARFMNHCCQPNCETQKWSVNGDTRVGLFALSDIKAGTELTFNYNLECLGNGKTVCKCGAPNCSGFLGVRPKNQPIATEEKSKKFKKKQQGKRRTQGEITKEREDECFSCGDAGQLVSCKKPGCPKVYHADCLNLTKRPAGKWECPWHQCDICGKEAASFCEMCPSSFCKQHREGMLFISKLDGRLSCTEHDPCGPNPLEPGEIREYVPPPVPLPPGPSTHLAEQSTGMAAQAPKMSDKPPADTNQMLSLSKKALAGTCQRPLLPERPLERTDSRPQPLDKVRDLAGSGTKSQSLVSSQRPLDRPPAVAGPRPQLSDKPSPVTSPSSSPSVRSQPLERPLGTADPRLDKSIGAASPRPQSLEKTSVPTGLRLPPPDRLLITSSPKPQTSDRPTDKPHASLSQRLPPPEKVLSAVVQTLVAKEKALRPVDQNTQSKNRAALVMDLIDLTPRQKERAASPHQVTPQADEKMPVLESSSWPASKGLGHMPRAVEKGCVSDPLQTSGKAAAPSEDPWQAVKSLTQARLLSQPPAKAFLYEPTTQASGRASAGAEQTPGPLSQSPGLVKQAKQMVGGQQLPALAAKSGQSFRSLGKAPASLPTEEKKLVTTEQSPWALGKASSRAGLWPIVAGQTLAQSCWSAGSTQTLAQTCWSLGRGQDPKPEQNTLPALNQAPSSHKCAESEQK
smiles,measurement,setting,value
Cc1cc(CNCCCCCCCCCCC(=O)N[C@H](C(=O)N2C[C@H](O)C[C@H]2C(=O)N[C@@H](C)c2ccc(-c3scnc3C)cc2)C(C)(C)C)cc(C)c1-c1ncn(C)c1-c1ccnc2cc(F)ccc12,NSD3 degradation,[1],58.9%
same,Activity,[2],Dose-Dependent Effect
same,fold change (FC),[3],0.84
same,Activity,[4],Dose-Dependent Effect
same,pEC50,[5],6.03
same,fold change (FC),[6],0.72
same,fold change (FC),[7],0.53
same,fold change (FC),[8],0.93
same,fold change (FC),[9],0.81
same,Activity,[10],inactive
same,Activity,[11],Active
same,inhibition at 3 µM,[12],100%
same,fold change (FC),[13],0.89
same,fold change (FC),[14],0.5
same,Activity,[15],Dose-Dependent Effect
same,viability at 10 µM,[16],7.76%
same,pIC50,[17],5.56
same,Activity,[18],60%
same,fold change (FC),[19],0.49
same,fold change (FC),[20],0.62
same,fold change (FC),[21],0.61
